From ChEMBL document CHEMBL4152385, “Synthesis, Receptor Affinity, and Antiallodynic Activity of Spirocyclic σ Receptor Ligands with Exocyclic Amino Moiety” (J Med Chem, 2018) come the findings set out here.

Activity calls are given as the source filed them. No cut-off for these calls is given here.

Series [1] addresses T1, Sigma non-opioid intracellular receptor 1 (Cavia porcellus, UniProt Q60492).
Series [2] concerns the target T1, Sigma non-opioid intracellular receptor 1. Nature of the series: Displacement of [3H]-(+)-pentazocine from sigma1 receptor in guinea pig brain cortex membranes incubated for 120 mins by scintillation counting method. The series is classed as cell membranes.
The target of series [3] is T2, 5-hydroxytryptamine receptor 1A (Homo sapiens) (UniProt P08908).
T2 sequence (whole entry): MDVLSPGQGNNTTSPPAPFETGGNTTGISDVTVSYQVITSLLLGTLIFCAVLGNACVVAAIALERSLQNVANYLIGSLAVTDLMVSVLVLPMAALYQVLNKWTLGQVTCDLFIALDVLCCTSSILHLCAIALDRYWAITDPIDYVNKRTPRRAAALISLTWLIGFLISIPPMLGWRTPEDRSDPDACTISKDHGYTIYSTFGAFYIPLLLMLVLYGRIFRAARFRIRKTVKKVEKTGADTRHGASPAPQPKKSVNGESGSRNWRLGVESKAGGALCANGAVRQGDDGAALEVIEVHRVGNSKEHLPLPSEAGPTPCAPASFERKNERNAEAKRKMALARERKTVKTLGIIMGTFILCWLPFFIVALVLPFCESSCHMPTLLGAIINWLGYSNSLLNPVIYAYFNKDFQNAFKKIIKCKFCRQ
Put plainly: Inhibition of 5-HT1A receptor (unknown origin) at 1 uM relative to control.

In series [4] the target is Histamine H1 receptor (Homo sapiens) (UniProt P35367). Nature of the series: Inhibition of histamine H1 receptor (unknown origin) at 1 uM relative to control.
Series [5] has as its target T3, Alpha-1A adrenergic receptor (Homo sapiens) (UniProt P35348).
T3 sequence (whole entry): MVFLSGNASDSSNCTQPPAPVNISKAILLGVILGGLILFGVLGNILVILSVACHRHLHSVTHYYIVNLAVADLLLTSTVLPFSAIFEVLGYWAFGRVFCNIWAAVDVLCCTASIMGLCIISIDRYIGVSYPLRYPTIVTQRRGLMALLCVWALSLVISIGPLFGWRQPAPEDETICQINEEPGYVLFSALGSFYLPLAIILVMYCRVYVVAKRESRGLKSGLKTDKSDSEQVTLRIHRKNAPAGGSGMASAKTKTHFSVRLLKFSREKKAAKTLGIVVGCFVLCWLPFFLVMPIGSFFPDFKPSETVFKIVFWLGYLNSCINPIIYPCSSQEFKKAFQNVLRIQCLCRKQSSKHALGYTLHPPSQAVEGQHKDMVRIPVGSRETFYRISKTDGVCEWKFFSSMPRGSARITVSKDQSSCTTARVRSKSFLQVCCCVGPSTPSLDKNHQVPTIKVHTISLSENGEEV
Nature of the series: Inhibition of alpha-1A adrenergic receptor (unknown origin) at 1 uM relative to control.

Series [6] is described as follows: in vitro. The settings on record: mouse, liver microsomes. Background: Liver microsomes are a subcellular fraction often used to study metabolism.
Description: Metabolic stability in mouse liver microsomes assessed as compound remaining at 25 uM after 1 hr in presence of NADPH by LC-MS analysis
For series [7], the system named is Mus musculus. Put plainly: Antiallodynic activity in CD1 mouse model of capsaicin-induced mechanical allodynia assessed as effect on paw withdrawal latency time at 2 to 64 mg/kg, sc administered 30 mins before capsaicin addition and measured at 30 secs intervals. The series is classed as functional, organism-based.
Series [8] addresses Sodium-dependent dopamine transporter (Homo sapiens) (UniProt Q01959). Nature of the series: Inhibition of DAT (unknown origin) at 1 uM relative to control.
The subject of series [9] is Mus musculus. Put plainly: Antiallodynic activity in CD1 mouse model of capsaicin-induced mechanical allodynia assessed as effect on paw withdrawal latency time at 8 to 16 mg/kg, sc administered 5 mins after sigma1 receptor agonist PRE-084 dosing followed by capsaicin addition and measured after 30 mins post compound dose. Format: functional, organism-based.
Series [10] addresses T4, Sigma intracellular receptor 2 (Rattus norvegicus, UniProt Q5U3Y7).
T4 sequence (Q5U3Y7 whole entry): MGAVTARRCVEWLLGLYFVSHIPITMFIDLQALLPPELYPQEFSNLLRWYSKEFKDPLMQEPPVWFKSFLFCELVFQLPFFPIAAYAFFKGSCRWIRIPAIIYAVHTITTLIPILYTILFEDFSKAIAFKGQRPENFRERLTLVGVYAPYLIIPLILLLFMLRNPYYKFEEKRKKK
Put plainly: Displacement of [3H]-di-o-tolylguanidine from sigma2 receptor in rat liver membranes incubated for 120 mins by scintillation counting method. Format: cell membranes, Membrane. (Loss of bound radioactivity is the signal in a displacement assay; it reports binding, not function.)

For series [11], the target named is Mu-type opioid receptor (Homo sapiens, UniProt P35372). Put plainly: Agonist activity at human MOR expressed in CHOK1 cells assessed as reduction in forskolin-induced intracellular cAMP increase after 45 mins by HTRF analysis. Format: functional, cell-based. For orientation: TR-FRET usually uses a lanthanide donor and a delayed reading to cut background.
Series [12] deals with Sodium-dependent serotonin transporter (Homo sapiens) (UniProt P31645). Nature of the series: Inhibition of SERT (unknown origin) at 1 uM relative to control.
Series [13] deals with Mus musculus. Put plainly: Antiallodynic activity in CD1 mouse model of capsaicin-induced mechanical allodynia assessed as effect on paw withdrawal latency time at 32 mg/kg, sc administered 5 mins after sigma1 receptor agonist PRE-084 dosing followed by capsaicin addition and measured after 30 mins post compound dose. The series is classed as functional, organism-based.
For series [14], the target named is Glutamate receptor ionotropic, NMDA 2B (Homo sapiens, UniProt Q13224). Nature of the series: Displacement of [3H]ifenprodil from GluN2B (unknown origin) expressed in mouse L(tk-) cell membranes incubated for 120 mins by scintillation counting method.
Series [15] is described as follows: Displacement of [3H]-(+)-MK-801 from NMDA PCP binding site in pig brain cortex membrane incubated for 120 mins by scintillation counting method. The series is classed as cell membranes, Sus scrofa.
Series [16] concerns the target 5-hydroxytryptamine receptor 2B (Homo sapiens) (UniProt P41595). Nature of the series: Inhibition of 5-HT2B receptor (unknown origin) at 1 uM relative to control.
The target of series [17] is Sodium-dependent noradrenaline transporter (Homo sapiens) (UniProt P23975). Put plainly: Inhibition of NET (unknown origin) at 1 uM relative to control.
Chain of Sodium-dependent noradrenaline transporter (Homo sapiens) (P23975 whole entry): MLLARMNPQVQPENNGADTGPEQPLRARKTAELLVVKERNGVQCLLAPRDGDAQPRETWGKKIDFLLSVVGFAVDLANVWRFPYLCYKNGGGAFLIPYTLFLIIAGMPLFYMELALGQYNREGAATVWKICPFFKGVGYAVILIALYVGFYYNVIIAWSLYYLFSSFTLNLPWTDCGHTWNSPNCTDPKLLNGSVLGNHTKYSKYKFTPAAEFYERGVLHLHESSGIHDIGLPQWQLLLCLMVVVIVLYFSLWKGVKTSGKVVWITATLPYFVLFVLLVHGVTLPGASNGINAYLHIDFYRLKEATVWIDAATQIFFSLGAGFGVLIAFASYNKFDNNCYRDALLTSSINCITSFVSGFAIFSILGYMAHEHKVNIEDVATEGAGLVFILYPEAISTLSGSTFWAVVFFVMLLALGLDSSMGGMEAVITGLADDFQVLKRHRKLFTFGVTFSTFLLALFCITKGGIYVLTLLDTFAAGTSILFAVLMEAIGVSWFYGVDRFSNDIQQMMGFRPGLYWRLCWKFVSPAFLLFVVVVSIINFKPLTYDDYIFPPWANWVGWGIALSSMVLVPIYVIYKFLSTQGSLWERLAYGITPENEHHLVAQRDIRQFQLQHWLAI

T1 sequence (Q60492 whole entry): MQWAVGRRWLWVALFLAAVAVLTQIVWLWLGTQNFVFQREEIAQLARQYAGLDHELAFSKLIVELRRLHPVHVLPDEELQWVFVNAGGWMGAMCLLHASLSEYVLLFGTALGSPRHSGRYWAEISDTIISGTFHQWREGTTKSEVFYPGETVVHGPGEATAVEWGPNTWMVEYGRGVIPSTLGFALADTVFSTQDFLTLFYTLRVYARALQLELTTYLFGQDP
Chain of 5-hydroxytryptamine receptor 2B (Homo sapiens) (P41595 whole entry): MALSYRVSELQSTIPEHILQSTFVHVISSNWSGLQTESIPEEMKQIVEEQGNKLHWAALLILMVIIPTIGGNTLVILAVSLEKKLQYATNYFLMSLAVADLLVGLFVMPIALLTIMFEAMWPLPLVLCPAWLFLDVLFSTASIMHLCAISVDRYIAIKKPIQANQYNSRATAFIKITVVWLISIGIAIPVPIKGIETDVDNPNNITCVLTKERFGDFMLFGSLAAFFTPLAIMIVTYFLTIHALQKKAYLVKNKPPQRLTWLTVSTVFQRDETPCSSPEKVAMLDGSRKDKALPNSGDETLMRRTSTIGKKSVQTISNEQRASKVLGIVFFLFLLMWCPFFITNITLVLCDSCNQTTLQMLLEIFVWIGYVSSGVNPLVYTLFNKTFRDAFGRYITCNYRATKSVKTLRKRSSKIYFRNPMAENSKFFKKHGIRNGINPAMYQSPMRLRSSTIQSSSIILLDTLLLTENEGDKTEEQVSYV
Chain of Glutamate receptor ionotropic, NMDA 2B (Q13224 whole entry): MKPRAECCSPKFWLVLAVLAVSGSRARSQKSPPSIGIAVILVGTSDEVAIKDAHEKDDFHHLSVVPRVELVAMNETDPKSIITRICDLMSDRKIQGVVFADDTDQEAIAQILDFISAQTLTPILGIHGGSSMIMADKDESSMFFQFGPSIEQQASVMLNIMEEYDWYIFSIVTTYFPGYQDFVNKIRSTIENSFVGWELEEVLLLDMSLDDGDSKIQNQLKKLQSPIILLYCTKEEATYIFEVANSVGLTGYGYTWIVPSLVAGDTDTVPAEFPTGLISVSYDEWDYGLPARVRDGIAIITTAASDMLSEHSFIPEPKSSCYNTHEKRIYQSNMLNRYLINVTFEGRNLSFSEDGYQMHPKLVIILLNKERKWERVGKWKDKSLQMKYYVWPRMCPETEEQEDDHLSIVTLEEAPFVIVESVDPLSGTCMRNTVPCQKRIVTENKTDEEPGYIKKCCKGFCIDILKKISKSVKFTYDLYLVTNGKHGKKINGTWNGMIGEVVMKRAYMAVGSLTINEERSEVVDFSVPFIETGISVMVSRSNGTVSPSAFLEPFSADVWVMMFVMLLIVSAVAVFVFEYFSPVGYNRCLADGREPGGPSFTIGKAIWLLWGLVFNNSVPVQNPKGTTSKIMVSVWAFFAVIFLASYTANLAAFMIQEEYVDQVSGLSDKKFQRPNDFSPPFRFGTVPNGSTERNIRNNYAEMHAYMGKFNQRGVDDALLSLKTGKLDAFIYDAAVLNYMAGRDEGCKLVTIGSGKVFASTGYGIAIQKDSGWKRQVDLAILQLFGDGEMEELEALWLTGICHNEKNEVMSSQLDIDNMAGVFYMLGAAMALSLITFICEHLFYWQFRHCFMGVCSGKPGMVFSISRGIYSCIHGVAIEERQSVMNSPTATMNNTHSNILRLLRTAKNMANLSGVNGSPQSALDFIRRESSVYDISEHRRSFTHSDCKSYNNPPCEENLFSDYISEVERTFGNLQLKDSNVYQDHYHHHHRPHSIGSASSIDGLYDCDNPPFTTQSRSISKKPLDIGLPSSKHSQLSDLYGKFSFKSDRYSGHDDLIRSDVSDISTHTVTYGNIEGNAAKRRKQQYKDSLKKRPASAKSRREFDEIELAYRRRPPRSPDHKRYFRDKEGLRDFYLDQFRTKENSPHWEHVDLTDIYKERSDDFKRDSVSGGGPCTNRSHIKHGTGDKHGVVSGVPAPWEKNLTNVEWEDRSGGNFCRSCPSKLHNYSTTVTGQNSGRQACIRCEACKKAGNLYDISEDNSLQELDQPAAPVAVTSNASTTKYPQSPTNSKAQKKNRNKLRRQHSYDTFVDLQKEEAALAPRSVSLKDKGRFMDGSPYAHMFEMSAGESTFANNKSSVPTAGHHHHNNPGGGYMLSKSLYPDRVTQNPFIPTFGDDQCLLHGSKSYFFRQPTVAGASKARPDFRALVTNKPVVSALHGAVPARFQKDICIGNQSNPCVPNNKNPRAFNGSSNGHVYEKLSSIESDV
Chain of Histamine H1 receptor (Homo sapiens) (P35367 whole entry): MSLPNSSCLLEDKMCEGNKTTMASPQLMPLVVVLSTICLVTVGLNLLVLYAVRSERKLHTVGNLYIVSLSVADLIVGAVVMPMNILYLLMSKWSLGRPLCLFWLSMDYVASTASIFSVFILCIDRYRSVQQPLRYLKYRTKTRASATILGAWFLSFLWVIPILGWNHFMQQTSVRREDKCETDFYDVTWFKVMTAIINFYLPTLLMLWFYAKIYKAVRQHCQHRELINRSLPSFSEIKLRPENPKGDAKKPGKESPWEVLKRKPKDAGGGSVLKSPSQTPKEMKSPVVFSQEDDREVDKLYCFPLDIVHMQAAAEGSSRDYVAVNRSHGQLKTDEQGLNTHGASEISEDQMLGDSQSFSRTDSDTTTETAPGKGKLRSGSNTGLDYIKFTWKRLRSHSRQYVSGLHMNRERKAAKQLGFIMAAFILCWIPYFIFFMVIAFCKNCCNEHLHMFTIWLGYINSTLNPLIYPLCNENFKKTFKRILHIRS
Chain of Mu-type opioid receptor (P35372 whole entry): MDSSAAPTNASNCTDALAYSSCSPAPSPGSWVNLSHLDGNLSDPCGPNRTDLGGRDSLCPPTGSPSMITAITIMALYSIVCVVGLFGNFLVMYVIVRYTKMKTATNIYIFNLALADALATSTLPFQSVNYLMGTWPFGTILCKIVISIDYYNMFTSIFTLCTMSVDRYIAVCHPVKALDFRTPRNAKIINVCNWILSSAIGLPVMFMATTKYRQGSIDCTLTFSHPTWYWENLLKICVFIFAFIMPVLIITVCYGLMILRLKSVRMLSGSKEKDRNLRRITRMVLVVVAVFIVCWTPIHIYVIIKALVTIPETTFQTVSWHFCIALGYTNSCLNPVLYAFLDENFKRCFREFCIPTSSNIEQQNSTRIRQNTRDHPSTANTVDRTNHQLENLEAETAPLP
Chain of Sodium-dependent dopamine transporter (Homo sapiens) (Q01959 whole entry): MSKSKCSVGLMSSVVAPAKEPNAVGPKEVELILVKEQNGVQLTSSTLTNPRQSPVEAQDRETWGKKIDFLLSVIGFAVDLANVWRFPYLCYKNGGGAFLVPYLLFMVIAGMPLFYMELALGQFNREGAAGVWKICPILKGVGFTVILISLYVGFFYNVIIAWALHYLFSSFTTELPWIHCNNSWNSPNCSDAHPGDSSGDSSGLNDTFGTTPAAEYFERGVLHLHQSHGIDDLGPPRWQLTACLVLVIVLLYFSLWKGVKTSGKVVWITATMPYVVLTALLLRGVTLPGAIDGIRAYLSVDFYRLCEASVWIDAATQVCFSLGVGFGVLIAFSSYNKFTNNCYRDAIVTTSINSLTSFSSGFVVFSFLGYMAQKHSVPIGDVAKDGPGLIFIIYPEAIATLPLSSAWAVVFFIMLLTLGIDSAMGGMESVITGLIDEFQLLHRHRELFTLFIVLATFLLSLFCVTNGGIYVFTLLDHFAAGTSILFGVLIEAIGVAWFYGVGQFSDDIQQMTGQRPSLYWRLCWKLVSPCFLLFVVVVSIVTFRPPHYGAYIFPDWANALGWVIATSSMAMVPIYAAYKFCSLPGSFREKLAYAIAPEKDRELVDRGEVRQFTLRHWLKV
Chain of Sodium-dependent serotonin transporter (Homo sapiens) (P31645 whole entry, looked up): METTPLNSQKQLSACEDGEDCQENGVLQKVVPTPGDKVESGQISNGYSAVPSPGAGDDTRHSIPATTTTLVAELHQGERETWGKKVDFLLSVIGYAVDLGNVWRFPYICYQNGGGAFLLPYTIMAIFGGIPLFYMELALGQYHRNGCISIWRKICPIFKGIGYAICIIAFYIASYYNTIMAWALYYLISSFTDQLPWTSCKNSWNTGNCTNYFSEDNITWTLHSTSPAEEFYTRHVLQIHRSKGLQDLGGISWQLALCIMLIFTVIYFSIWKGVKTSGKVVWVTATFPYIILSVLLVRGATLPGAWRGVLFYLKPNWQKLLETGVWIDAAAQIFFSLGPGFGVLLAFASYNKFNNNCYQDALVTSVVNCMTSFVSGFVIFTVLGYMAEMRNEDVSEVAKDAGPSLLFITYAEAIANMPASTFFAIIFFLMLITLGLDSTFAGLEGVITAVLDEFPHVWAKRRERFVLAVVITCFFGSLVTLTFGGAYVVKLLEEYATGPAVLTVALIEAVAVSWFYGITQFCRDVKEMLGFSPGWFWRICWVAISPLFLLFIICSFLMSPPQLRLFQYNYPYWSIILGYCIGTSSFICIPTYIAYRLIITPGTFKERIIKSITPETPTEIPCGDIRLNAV

The term Ki denotes the dissociation constant of the complex between target and ligand, obtained from inhibition or displacement. The low end stands for higher affinity, the high end for lower affinity. On to `Fc1ccc(-n2cc(CCCCN3CCC4(CC3)OCc3ccccc34)c3ccccc32)cc1` [SIRAMESINE], for which the Ki in [1] and in series [2] was 17 nM each time.
One may read the inhibition as the relative decrease from the control value, in per cent. By fraction remaining is commonly meant what is left of the initial amount, in per cent. Low values mean more turnover, high ones less turnover. One may read the EC50 as the concentration needed to bring the measured effect to its halfway point. Regarding `FCC[C@@H]1Cc2ccccc2C2(CCC(N3CCN(C4CCCCC4)CC3)CC2)O1` (some centres not stated), the inhibition is 62% in [3]; under 50% in [4]; under 50% in series [5]; under 50% in [8]; under 50% in series [12]; under 50% in series [16]. This compound also had an inhibition in series [17] of under 50%. For the same compound, in [6], the fraction remaining at 1 h, 25 µM stood at 71.8%. Also, the outcome in [7] and in series [13] was Active. Further, in series [9], the outcome was inactive. For the same compound, the values for the Ki in series [10], in series [14] and in series [15] were 45 nM, 65 nM and over 1000 nM, respectively. Also, the EC50 in series [11] was found to be 1760 nM.
